Reference: US9302999B2, “Substituted triazoles as herbicides” (E. I. DU PONT DE NEMOURS AND COMPANY, priority 2012, dated 2016)

Tests used:
Format in all cases: in vivo
[1] = system: field poppy (Papaver rhoeas); test: Test D pre-/postemergence: field poppy; details: Postemergence; for Plant response rating, Field Poppy: 16 g ai/ha, scale 0 to 100
Text: (§1) Seeds of plant species selected from bluegrass (annual bluegrass, Poa annua), blackgrass (Alopecurus myosuroides), canarygrass (Phalaris minor), chickweed (common chickweed, Stellaria media), galium (catchweed bedstraw, Galium aparine), bromegrass, downy (downy bromegrass, Bromus tectorum), field poppy (Papaver rhoeas), field violet (Viola arvensis), foxtail, green (green foxtail, Setaria viridis), deadnettle (henbit deadnettle, Lamium amplexicaule), ryegrass, Italian (Italian ryegrass, Lolium multiflorum), kochia (Kochia scoparia), lambsquarters (Chenopodium album), oilseed rape (Brassica napus), pigweed (Amaranthus retroflexus), Russian thistle (Salsola iberica), chamomile (scentless chamomile, Matricaria inodora), speedwell (bird's-eye speedwell, Veronica persica), barley, spring (spring barley, Hordeum vulgare), wheat, spring (spring wheat, Triticum aestivum), buckwheat, wild (wild buckwheat, Polygonum convolvulus), mustard, wild (wild mustard, Sinapis arvensis), oat, wild (wild oat, Avena fatua), radish, wild (wild radish, Raphanus raphanistrum), windgrass (Apera spica-venti), barley, winter (winter barley, Hordeum vulgare), and wheat, winter (winter wheat, Triticum aestivum) were planted into a silt loam soil and treated preemergence with test chemicals formulated in a non-phytotoxic solvent mixture which included a surfactant. At the same time, these same crop and weed species were planted in pots containing the planting medium comprising spaghnum peat moss, vermiculite, wetting agent and starter nutrients and treated with postemergence applications of the test chemicals formulated in the same manner. Plants ranged in height from 2 to 18 cm (1- to 4-leaf stage).
(§2) Treated plants and controls were maintained in a controlled growth environment for 14 to 21 days after which time all species were compared to controls and visually evaluated. Plant response ratings, summarized in Table D, are based on a scale of 0 to 100 where 0 is no effect and 100 is complete control. A dash (-) response means no test result.

[2] = system: oat, wild (wild oat, Avena fatua); test: Test D pre-/postemergence: oat, wild
Text: as §1, §2

[3] = system: canarygrass (Phalaris minor); test: Test D pre-/postemergence: canarygrass
Text: as §1, §2

[4] = system: field violet (Viola arvensis); test: Test D pre-/postemergence: field violet; details: Postemergence; for Plant response rating, Field Violet: 16 g ai/ha, scale 0 to 100
Text: as §1, §2

[5] = system: barley, spring (spring barley, Hordeum vulgare); test: Test D pre-/postemergence: barley, spring
Text: as §1, §2

[6] = system: barley, winter (winter barley, Hordeum vulgare); test: Test D pre-/postemergence: barley, winter
Text: as §1, §2

[7] = system: radish, wild (wild radish, Raphanus raphanistrum); test: Test D pre-/postemergence: radish, wild
Text: as §1, §2

[8] = 31 g ai/ha, scale 0 to 100 (0 no effect, 100 complete control)
[9] = 62 g ai/ha, scale 0 to 100 (0 no effect, 100 complete control)
[10] = 125 g ai/ha, scale 0 to 100, 0 no effect, 100 complete control
[11] = 250 g ai/ha, scale 0 to 100 (0 no effect, 100 complete control)
[12] = Postemergence, 31 g ai/ha, scale 0 to 100 (0 no effect, 100 complete control)
[13] = Postemergence, 62 g ai/ha, scale 0 to 100 (0 no effect, 100 complete control)
[14] = Postemergence, 125 g ai/ha, scale 0 to 100, 0 no effect, 100 complete control
[15] = Postemergence, 250 g ai/ha, scale 0 to 100 (0 no effect, 100 complete control)
[16] = Postemergence, 16 g ai/ha, scale 0 to 100
[17] = Preemergence, 62 g ai/ha, scale 0 to 100
[18] = Preemergence, 125 g ai/ha, scale 0 to 100
[19] = Preemergence, 250 g ai/ha, scale 0 to 100
[20] = Preemergence, 31 g ai/ha, scale 0 to 100, 0 no effect, 100 complete control

## COc1nn(-c2ccc(C(F)(F)F)cc2)nc1Cc1ccnc(C(F)(F)F)c1 [Compound 15, 4-[[5-methoxy-2-[4-(trifluoromethyl)phenyl]-2H-1,2,3-triazol-4-yl]methyl]-2-(trifluoromethyl)pyridine]
[1]; [8]
  Plant response rating: Field Poppy: 100
[1]; [9]
  Plant response rating: Field Poppy: 100
[1]; [10]
  Plant response rating: Field Poppy: 100
[1]; [11]
  Plant response rating: Field Poppy: 100
[1]
  Plant response rating, Field Poppy: 100
[2]; [12]
  Plant response rating: Oat, Wild: 10
[2]; [13]
  Plant response rating: Oat, Wild: 10
[2]; [14]
  Plant response rating: Oat, Wild: 30
[2]; [15]
  Plant response rating: Oat, Wild: 40
[2]; [16]
  Plant response rating, Oat, Wild: 10
[2]; [17]
  Plant response rating, Oat, Wild: 15
[2]; [18]
  Plant response rating, Oat, Wild: 40
[2]; [19]
  Plant response rating, Oat, Wild: 100
[3]; [12]
  Plant response rating: Canarygrass: 35
[3]; [13]
  Plant response rating: Canarygrass: 40
[3]; [14]
  Plant response rating: Canarygrass: 50
[3]; [15]
  Plant response rating: Canarygrass: 80
[3]; [16]
  Plant response rating, Canarygrass: 25
[3]; [20]
  Plant response rating, Canarygrass: 25
[3]; [17]
  Plant response rating, Canarygrass: 80
[3]; [18]
  Plant response rating, Canarygrass: 90
[3]; [19]
  Plant response rating, Canarygrass: 100
[4]; [8]
  Plant response rating: Field Violet: 100
[4]; [9]
  Plant response rating: Field Violet: 100
[4]; [10]
  Plant response rating: Field Violet: 100
[4]; [11]
  Plant response rating: Field Violet: 100
[4]
  Plant response rating, Field Violet: 80
[5]; [12]
  Plant response rating: Barley, Spring: 15
[5]; [13]
  Plant response rating: Barley, Spring: 25
[5]; [14]
  Plant response rating: Barley, Spring: 30
[5]; [15]
  Plant response rating: Barley, Spring: 40
[5]; [16]
  Plant response rating, Barley, Spring: 10
[5]; [20]
  Plant response rating, Barley, Spring: 0
[5]; [17]
  Plant response rating, Barley, Spring: 0
[5]; [18]
  Plant response rating, Barley, Spring: 10
[5]; [19]
  Plant response rating, Barley, Spring: 15
[6]; [12]
  Plant response rating: Barley, Winter: 10
[6]; [13]
  Plant response rating: Barley, Winter: 15
[6]; [14]
  Plant response rating: Barley, Winter: 20
[6]; [15]
  Plant response rating: Barley, Winter: 40
[6]; [16]
  Plant response rating, Barley, Winter: 10
[6]; [20]
  Plant response rating, Barley, Winter: 0
[6]; [17]
  Plant response rating, Barley, Winter: 5
[6]; [18]
  Plant response rating, Barley, Winter: 20
[6]; [19]
  Plant response rating, Barley, Winter: 30
[7]; [12]
  Plant response rating: Radish, Wild: 100
[7]; [13]
  Plant response rating: Radish, Wild: 100
[7]; [14]
  Plant response rating: Radish, Wild: 100
[7]; [15]
  Plant response rating: Radish, Wild: 100
[7]; [16]
  Plant response rating, Radish, Wild: 100
[7]; [20]
  Plant response rating, Radish, Wild: 0
[7]; [17]
  Plant response rating, Radish, Wild: 0
[7]; [18]
  Plant response rating, Radish, Wild: 100
[7]; [19]
  Plant response rating, Radish, Wild: 100

## Cc1nn(-c2ccc(C(F)(F)F)cn2)nc1Cc1cccc(C(F)(F)F)c1 [Compound 106]
[1]; [8]
  Plant response rating: Field Poppy: 100
[1]; [9]
  Plant response rating: Field Poppy: 100
[1]; [10]
  Plant response rating: Field Poppy: 100
[1]; [11]
  Plant response rating: Field Poppy: 100
[1]
  Plant response rating, Field Poppy: 100
[2]; [12]
  Plant response rating: Oat, Wild: 5
[2]; [13]
  Plant response rating: Oat, Wild: 5
[2]; [14]
  Plant response rating: Oat, Wild: 5
[2]; [15]
  Plant response rating: Oat, Wild: 20
[2]; [16]
  Plant response rating, Oat, Wild: 0
[2]; [20]
  Plant response rating, Oat, Wild: 0
[2]; [17]
  Plant response rating, Oat, Wild: 0
[2]; [18]
  Plant response rating, Oat, Wild: 10
[2]; [19]
  Plant response rating, Oat, Wild: 10
[3]; [12]
  Plant response rating: Canarygrass: 5
[3]; [13]
  Plant response rating: Canarygrass: 10
[3]; [14]
  Plant response rating: Canarygrass: 20
[3]; [15]
  Plant response rating: Canarygrass: 30
[3]; [16]
  Plant response rating, Canarygrass: 5
[3]; [20]
  Plant response rating, Canarygrass: 0
[3]; [17]
  Plant response rating, Canarygrass: 0
[3]; [18]
  Plant response rating, Canarygrass: 0
[3]; [19]
  Plant response rating, Canarygrass: 0
[4]; [8]
  Plant response rating: Field Violet: 70
[4]; [9]
  Plant response rating: Field Violet: 70
[4]; [10]
  Plant response rating: Field Violet: 85
[4]; [11]
  Plant response rating: Field Violet: 100
[4]
  Plant response rating, Field Violet: 70
[5]; [12]
  Plant response rating: Barley, Spring: 10
[5]; [13]
  Plant response rating: Barley, Spring: 15
[5]; [14]
  Plant response rating: Barley, Spring: 20
[5]; [15]
  Plant response rating: Barley, Spring: 30
[5]; [16]
  Plant response rating, Barley, Spring: 5
[5]; [20]
  Plant response rating, Barley, Spring: 0
[5]; [17]
  Plant response rating, Barley, Spring: 0
[5]; [18]
  Plant response rating, Barley, Spring: 0
[5]; [19]
  Plant response rating, Barley, Spring: 0
[6]; [12]
  Plant response rating: Barley, Winter: 5
[6]; [13]
  Plant response rating: Barley, Winter: 5
[6]; [14]
  Plant response rating: Barley, Winter: 5
[6]; [15]
  Plant response rating: Barley, Winter: 10
[6]; [16]
  Plant response rating, Barley, Winter: 0
[6]; [20]
  Plant response rating, Barley, Winter: 0
[6]; [17]
  Plant response rating, Barley, Winter: 0
[6]; [18]
  Plant response rating, Barley, Winter: 0
[6]; [19]
  Plant response rating, Barley, Winter: 20
[7]; [12]
  Plant response rating: Radish, Wild: 100
[7]; [13]
  Plant response rating: Radish, Wild: 100
[7]; [14]
  Plant response rating: Radish, Wild: 100
[7]; [15]
  Plant response rating: Radish, Wild: 100
[7]; [16]
  Plant response rating, Radish, Wild: 100
[7]; [20]
  Plant response rating, Radish, Wild: 0
[7]; [17]
  Plant response rating, Radish, Wild: 30
[7]; [18]
  Plant response rating, Radish, Wild: 30
[7]; [19]
  Plant response rating, Radish, Wild: 30

## COc1nn(-c2ccc(C(F)(F)F)cc2)nc1Cc1ccnc(C(F)F)c1 [Compound 138]
[1]; [8]
  Plant response rating: Field Poppy: 90
[1]; [9]
  Plant response rating: Field Poppy: 90
[1]; [10]
  Plant response rating: Field Poppy: 100
[1]; [11]
  Plant response rating: Field Poppy: 100
[1]
  Plant response rating, Field Poppy: 80
[2]; [12]
  Plant response rating: Oat, Wild: 20
[2]; [13]
  Plant response rating: Oat, Wild: 30
[2]; [14]
  Plant response rating: Oat, Wild: 50
[2]; [15]
  Plant response rating: Oat, Wild: 75
[2]; [16]
  Plant response rating, Oat, Wild: 10
[3]; [12]
  Plant response rating: Canarygrass: 25
[3]; [13]
  Plant response rating: Canarygrass: 30
[3]; [14]
  Plant response rating: Canarygrass: 50
[3]; [15]
  Plant response rating: Canarygrass: 80
[3]; [16]
  Plant response rating, Canarygrass: 10
[4]; [8]
  Plant response rating: Field Violet: 70
[4]; [9]
  Plant response rating: Field Violet: 75
[4]; [10]
  Plant response rating: Field Violet: 85
[4]; [11]
  Plant response rating: Field Violet: 90
[4]
  Plant response rating, Field Violet: 60
[5]; [12]
  Plant response rating: Barley, Spring: 20
[5]; [13]
  Plant response rating: Barley, Spring: 25
[5]; [14]
  Plant response rating: Barley, Spring: 35
[5]; [15]
  Plant response rating: Barley, Spring: 40
[5]; [16]
  Plant response rating, Barley, Spring: 10
[6]; [12]
  Plant response rating: Barley, Winter: 5
[6]; [13]
  Plant response rating: Barley, Winter: 15
[6]; [14]
  Plant response rating: Barley, Winter: 20
[6]; [15]
  Plant response rating: Barley, Winter: 20
[6]; [16]
  Plant response rating, Barley, Winter: 5
[7]; [12]
  Plant response rating: Radish, Wild: 80
[7]; [13]
  Plant response rating: Radish, Wild: 95
[7]; [14]
  Plant response rating: Radish, Wild: 100
[7]; [15]
  Plant response rating: Radish, Wild: 100
[7]; [16]
  Plant response rating, Radish, Wild: 80
